Patent US20140357655A1, “SPIROINDOLINE DERIVATIVES AS GONADOTROPIN- RELEASING HORMONE RECEPTOR ANTAGONISTS” (Bayer Intellectual Property GmbH, priority 2012, published 2014)

Molecular target: T1, human GnRH receptor (Homo sapiens, UniProt P30968)
T1 sequence (P30968 1-328): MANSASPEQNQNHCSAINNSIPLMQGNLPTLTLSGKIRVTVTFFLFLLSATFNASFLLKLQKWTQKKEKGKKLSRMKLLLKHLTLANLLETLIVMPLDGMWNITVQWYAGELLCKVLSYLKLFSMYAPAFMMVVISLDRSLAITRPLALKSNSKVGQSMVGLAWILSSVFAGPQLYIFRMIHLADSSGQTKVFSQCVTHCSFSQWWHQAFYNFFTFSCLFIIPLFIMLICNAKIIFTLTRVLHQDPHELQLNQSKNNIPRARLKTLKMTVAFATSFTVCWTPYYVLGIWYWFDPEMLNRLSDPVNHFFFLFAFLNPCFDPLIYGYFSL
Test: IP-One HTRF assay with buserelin (at EC80) stimulation
Format: cell-based
Conditions: CHO cells stably expressing human GnRH receptor, read-out: Potency in IP-One HTRF assay, given as IC50
Source text: 2.3. IP-One HTRF® Assay By using homogenous time-resolved fluorescence resonance energy transfer (HTRF), the generation of one component of the GnRH—R signalling cascade can be measured. After stimulation of CHO cells stably expressing human GnRH receptor (established by Prof. Thomas Gudermann, currently University of Marburg, Germany; supplied as frozen cell aliquots by Cell Culture Services, Hamburg, Germany) with the EC80 of the GnRH agonist buserelin, Gq protein-coupled receptor signalling cascade is activated resulting in PLC-dependent cleavage of PIP2 to Inositol-1,4,5-triphosphate (IP3) and Diacylglycerol. The second messenger IP3 is degraded intracellularly to myo-inositol. Inhibition of the final degradation step from Inositol-1-phosphate (IP1) to myo-inositol by addition of lithium chloride leads to accumulation of IP1 in the cells. In cell lysates, IP1 can be detected via an antibody-based HTRF detection technology, where IP1 can displace the FRET acceptor IP1-d2 from binding by Terbium-labelled anti-IP1 antibody as donor resulting in a signal decrease. Compounds were tested for their capability of inhibiting GnRH—R activation by buserelin. For all IP-One HTRF® assays reagents of Cisbio Bioassays (IP-One Tb Jumbo kit, #62IPAPEJ; Cisbio Bioassays, Bagnols sur Cèze Cedex, France) were used.
For the assay, frozen cell aliquots were thawed and a cell suspension (3.33×10^6 cells/mL) containing IP1-d2 (dilution 1:40) was prepared and incubated at 37° C. After 1 h 3 μl of the cell suspension were added to 50 nl of a 100-fold concentrated solution of the test compound in DMSO pre-dispensed in a well of a white low-volume 384-well microtiter plate (Greiner Bio-One, Frickenhausen, Germany). […] Plates were incubated for 1 h at 37° C. and 5% carbon dioxide before the cells were lysed by adding 3 μl Terbium-labelled anti-IP1 antibody (1:40) diluted in Conjugate & Lysis buffer as supplied with the kit. After an incubation for 1 h at 22° C. to enable complete cell lysis and antibody binding to free IP1 or IP1-d2, plates were measured in an HTRF reader, e.g. a RUBYstar, PHERAstar (both BMG Labtechnologies, Offenburg, Germany) or a Viewlux (PerkinElmer LAS, Rodgau-Jügesheim, Germany).
From the fluorescence emissions at 665 nm (FRET) and at 620 nm (background signal of Terbium-antibody), the ratio (emission at 665 nm divided by emission at 620 nm) was calculated and the data were normalized (reaction without test compound=0% inhibition; all other assay components except agonist=100% inhibition). On the same microtiter plate, compounds were tested at 10 different concentrations in the range of 20 μM to 1 nM (20 μM, 6.7 μM, 2.2 μM, 0.74 μM, 0.25 μM, 82 nM, 27 nM, 9.2 nM, 3.1 nM and 1 nM; dilution series prepared before the assay at the level of the 100-fold conc. stock solutions by serial 1:3 dilutions in 100% DMSO) in duplicate values for each concentration. By using an in-house software, the IC50 values were calculated by a 4 parameter fit.

Which IC50 does the source give for `O=C(NCc1ccccc1Cl)c1ccc2c(c1)C1(CCSCC1)C(C1CC1)N2S(=O)(=O)c1ccc(F)cc1` (single isomer, unassigned) [Example 12.2, N-(2-Chlorobenzyl)-2-cyclopropyl-1-[(4-fluorophenyl)sulfonyl]-1,2,2′,3′,5′,6′-hexahydrospiro[indole-3,4′-thiopyran]-5-carboxamide] here?
Its IC50 is 3730 nM.

Which IC50 does the source give for `O=C(NCc1ccccc1Cl)c1ccc2c(c1)C1(CC[S+]([O-])CC1)C(C1CC1)N2S(=O)(=O)c1ccc(F)cc1` (single isomer, unassigned) [Example 13.2, N-(2-Chlorobenzyl)-2-cyclopropyl-1-[(4-fluorophenyl)sulfonyl]-1,2,2′,3′,5′,6′-hexahydrospiro[indole-3,4′-thiopyran]-5-carboxamide 1′-oxide] here?
The IC50 was 383 nM.

Which IC50 does the source give for `O=C(NCc1ncccc1Cl)c1ccc2c(c1)C1(CCS(=O)(=O)CC1)C(C1CC1)N2S(=O)(=O)c1ccc(F)cc1` (single isomer, unassigned) [Example 14.2, N-[(3-Chloropyridin-2-yl)methyl]-2-cyclopropyl-1-[(4-fluorophenyl)sulfonyl]-1,2,2′,3′,5′,6′-hexahydrospiro[indole-3,4′-thiopyran]-5-carboxamide 1′,1′-dioxide] here?
Its IC50 is 5390 nM.

With `O=C(NCc1ncccc1C(F)(F)F)c1ccc2c(c1)C1(CCS(=O)(=O)CC1)C(C1CC1)N2S(=O)(=O)c1ccc(F)cc1` (single isomer, unassigned) [Example 15.1, 2-cyclopropyl-1-[(4-fluorophenyl)sulfonyl]-N-{[3-(trifluoromethyl)pyridin-2-yl]methyl}-1,2,2′,3′,5′,6′-hexahydrospiro[indole-3,4′-thiopyran]-5-carboxamide 1′,1′-dioxide] as the compound, how does the IC50 read?
The IC50 was over 20000 nM.

`O=C(NCc1ncccc1C(F)(F)F)c1ccc2c(c1)C1(CCS(=O)(=O)CC1)C(C1CC1)N2S(=O)(=O)c1ccc(F)cc1` (single isomer, unassigned) [Example 15.2, 2-cyclopropyl-1-[(4-fluorophenyl)sulfonyl]-N-{[3-(trifluoromethyl)pyridin-2-yl]methyl}-1,2,2′,3′,5′,6′-hexahydrospiro[indole-3,4′-thiopyran]-5-carboxamide 1′,1′-dioxide] was tested. Which IC50 did it give?
Its IC50 is 69 nM.

Which IC50 does the source give for `O=C(NCc1ccc(F)cc1Cl)c1ccc2c(c1)C1(CCS(=O)(=O)CC1)C(C1CC1)N2S(=O)(=O)c1ccc(F)cc1` (single isomer, unassigned) [Example 16.1, N-(2-chloro-4-fluorobenzyl)-2-cyclopropyl-1-[(4-fluorophenyl)sulfonyl]-1,2,2′,3′,5′,6′-hexahydrospiro[indole-3,4′-thiopyran]-5-carboxamide 1′,1′-dioxide] here?
Its IC50 is 62 nM.

With `O=C(NCc1ccc(F)cc1Cl)c1ccc2c(c1)C1(CCS(=O)(=O)CC1)C(C1CC1)N2S(=O)(=O)c1ccc(F)cc1` (single isomer, unassigned) [Example 16.2, N-(2-chloro-4-fluorobenzyl)-2-cyclopropyl-1-[(4-fluorophenyl)sulfonyl]-1,2,2′,3′,5′,6′-hexahydrospiro[indole-3,4′-thiopyran]-5-carboxamide 1′,1′-dioxide] as the compound, how does the IC50 read?
The IC50 was 6840 nM.

Which IC50 does the source give for `O=C(NCc1ncc(F)cc1Cl)c1ccc2c(c1)C1(CCS(=O)(=O)CC1)C(C1CC1)N2S(=O)(=O)c1ccc(F)cc1` (single isomer, unassigned) [Example 17.1, N-[(3-chloro-5-fluoropyridin-2-yl)methyl]-2-cyclopropyl-1-[(4-fluorophenyl)sulfonyl]-1,2,2′,3′,5′,6′-hexahydrospiro[indole-3,4′-thiopyran]-5-carboxamide 1′,1′-dioxide] here?
The IC50 was 139 nM.

`O=C(NCc1ncc(F)cc1Cl)c1ccc2c(c1)C1(CCS(=O)(=O)CC1)C(C1CC1)N2S(=O)(=O)c1ccc(F)cc1` (single isomer, unassigned) [Example 17.2, N-[(3-chloro-5-fluoropyridin-2-yl)methyl]-2-cyclopropyl-1-[(4-fluorophenyl)sulfonyl]-1,2,2′,3′,5′,6′-hexahydrospiro[indole-3,4′-thiopyran]-5-carboxamide 1′,1′-dioxide] was tested. Which IC50 did it give?
The IC50 was 2480 nM.

For `O=C(NCc1ccccc1Cl)c1ccc2c(c1)C1(CCS(=O)(=O)CC1)C(C1CC1)N2S(=O)(=O)c1ccc(F)cc1` (single isomer, unassigned) [Example 18.2, N-(2-chlorobenzyl)-2-cyclopropyl-1-[(4-fluorophenyl)sulfonyl]-1,2,2′,3′,5′,6′-hexahydrospiro[indole-3,4′-thiopyran]-5-carboxamide 1′,1′-dioxide], which IC50 is on record?
The IC50 was 5240 nM.

With `CS(=O)(=O)c1cccc(NC(=O)c2ccc3c(c2)C2(CCS(=O)(=O)CC2)C(C2CC2)N3S(=O)(=O)c2ccc(F)cc2)c1` (single isomer, unassigned) [Example 23.1, 2-cyclopropyl-1-[(4-fluorophenyl)sulfonyl]-N-(3-mesylphenyl)-1,2,2′,3′,5′,6′-hexahydrospiro[indole-3,4′-thiopyran]-5-carboxamide 1′,1′-dioxide] as the compound, how does the IC50 read?
The IC50 was 1870 nM.

`CS(=O)(=O)c1cccc(NC(=O)c2ccc3c(c2)C2(CCS(=O)(=O)CC2)C(C2CC2)N3S(=O)(=O)c2ccc(F)cc2)c1` (single isomer, unassigned) [Example 23.2, 2-cyclopropyl-1-[(4-fluorophenyl)sulfonyl]-N-(3-mesylphenyl)-1,2,2′,3′,5′,6′-hexahydrospiro[indole-3,4′-thiopyran]-5-carboxamide 1′,1′-dioxide] was tested. Which IC50 did it give?
Its IC50 is 153 nM.

For `NS(=O)(=O)c1cccc(NC(=O)c2ccc3c(c2)C2(CCS(=O)(=O)CC2)C(C2CC2)N3S(=O)(=O)c2ccc(F)cc2)c1` (single isomer, unassigned) [Example 30.1, 2-cyclopropyl-1-[(4-fluorophenyl)sulfonyl]-N-(3-sulfamoylphenyl)-1,2,2′,3′,5′,6′-hexahydrospiro[indole-3,4′-thiopyran]-5-carboxamide 1′,1′-dioxide], which IC50 is on record?
The IC50 was 441 nM.

Which IC50 does the source give for `NS(=O)(=O)c1cccc(NC(=O)c2ccc3c(c2)C2(CCS(=O)(=O)CC2)C(C2CC2)N3S(=O)(=O)c2ccc(F)cc2)c1` (single isomer, unassigned) [Example 30.2, 2-cyclopropyl-1-[(4-fluorophenyl)sulfonyl]-N-(3-sulfamoylphenyl)-1,2,2′,3′,5′,6′-hexahydrospiro[indole-3,4′-thiopyran]-5-carboxamide 1′,1′-dioxide] here?
Its IC50 is 190 nM.

How did the IC50 turn out when `Cc1cccnc1CNC(=O)c1ccc2c(c1)C1(CCS(=O)(=O)CC1)C(C1CC1)N2S(=O)(=O)c1ccc(F)cc1` (single isomer, unassigned) [Example 31.1, 2-cyclopropyl-1-[(4-fluorophenyl)sulfonyl]-N-[(3-methylpyridin-2-yl)methyl]-1,2,2′,3′,5′,6′-hexahydrospiro[indole-3,4′-thiopyran]-5-carboxamide 1′,1′-dioxide] was run?
Its IC50 is 266 nM.

With `Cc1cccnc1CNC(=O)c1ccc2c(c1)C1(CCS(=O)(=O)CC1)C(C1CC1)N2S(=O)(=O)c1ccc(F)cc1` (single isomer, unassigned) [Example 31.2, 2-cyclopropyl-1-[(4-fluorophenyl)sulfonyl]-N-[(3-methylpyridin-2-yl)methyl]-1,2,2′,3′,5′,6′-hexahydrospiro[indole-3,4′-thiopyran]-5-carboxamide 1′,1′-dioxide] as the compound, how does the IC50 read?
Its IC50 is 15100 nM.

How did the IC50 turn out when `O=C(NCc1ccccc1C(F)(F)F)c1ccc2c(c1)C1(CCS(=O)(=O)CC1)C(C1CC1)N2S(=O)(=O)c1ccc(F)cc1` (single isomer, unassigned) [Example 32.1, 2-cyclopropyl-1-[(4-fluorophenyl)sulfonyl]-N-[2-(trifluoromethyl)benzyl]-1,2,2′,3′,5′,6′-hexahydrospiro[indole-3,4′-thiopyran]-5-carboxamide 1′,1′-dioxide] was run?
The IC50 was 34 nM.
